Values after ≈ are worked out from the molar mass of the structure shown. Read-outs that look alike come from different tables or passages of the source.
Experiments:
Format in all cases: cell-based
E. cloacae 963 = experiment: in vitro antibacterial activity, agar plate dilution method (MIC); details: for MIC: read-out: Minimum Inhibitory Concentration (MIC)
Protocol: (§1) One platinum loopfull of each test microorganism incubated overnight in Mueller Hinton broth, was inoculated to Mueller Hinton agar (inoculum size: 10^6 CFU/ml). Such culture media containing various antibiotics in various concentrations were prepared. After incubation at 37° C. for 16 hours, the minimum inhibitory concentrations (MIC: μg/ml) were measured.

E. coli NIHJ JC2 = experiment: as above; details: for MIC: Escherichia coli, read-out: Minimum Inhibitory Concentration (MIC)
Protocol: as §1

K. pneumoniae PCI-602 = experiment: as above; details: for MIC: Klebsiella pneumoniae, read-out: Minimum Inhibitory Concentration (MIC)
Protocol: as §1

P. vulgaris HX-19 = experiment: as above; details: for MIC: Proteus vulgaris, read-out: Minimum Inhibitory Concentration (MIC)
Protocol: as §1

S. marcescens IAM 1184 = experiment: as above; details: for MIC: Serratia marcescens, read-out: Minimum Inhibitory Concentration (MIC)
Protocol: as §1

S. aureus 109P NIHJ-JCl = experiment: in vitro antibacterial activity, agar plate dilution method (MIC), second part of Table 1; details: Staphylococcus aureus, 109PNIHJJCL, read-out: Minimum Inhibitory Concentration (MIC)
Protocol: as §1

S. aureus 209P NIHJ-JCl = experiment: in vitro antibacterial activity, agar plate dilution method (MIC); details: for MIC: Staphylococcus aureus, read-out: Minimum Inhibitory Concentration (MIC)
Protocol: as §1

[1] = Enterobacter cloacae, E. cloacae 963, 10^6 CFU/ml, MH agar, 37° C., 16 hours
[2] = NIHJJC2, E. coli NIHJ JC2, 10^6 CFU/ml, MH agar, 37° C., 16 hours
[3] = PCI602, K. pneumoniae PCI-602, 10^6 CFU/ml, MH agar, 37° C., 16 hours
[4] = HX19, P. vulgaris HX-19, 10^6 CFU/ml, MH agar, 37° C., 16 hours
[5] = IAM1184, S. marcescens IAM 1184, 10^6 CFU/ml, MH agar, 37° C., 16 hours
[6] = S. aureus 109P NIHJ-JCl, 10^6 CFU/ml, MH agar, 37° C., 16 hours
[7] = Enterobacter cloacae, 963, 16 h
[8] = S. aureus 209P NIHJ-JCl, 10^6 CFU/ml, MH agar, 37° C., 16 hours

| SMILES | MIC (E. cloacae 963; [1]) [µg/mL] | MIC (E. coli NIHJ JC2; [2]) [µg/mL] | MIC (K. pneumoniae PCI-602; [3]) [µg/mL] | MIC (P. vulgaris HX-19; [4]) [µg/mL] | MIC (S. marcescens IAM 1184; [5]) [µg/mL] | MIC (E. coli NIHJ JC2; NIHJJC2, 16 h) [µg/mL] | MIC (K. pneumoniae PCI-602; PCI602, 16 h) [µg/mL] | MIC (S. aureus 209P NIHJ-JCl; 209P, 16 h) [µg/mL] | MIC (S. marcescens IAM 1184; IAM1184, 16 h) [µg/mL] | further results |
| --- | --- | --- | --- | --- | --- | --- | --- | --- | --- | --- |
| C[n+]1ccc(COC2=C(C(=O)[O-])N3C(=O)[C@@H](NC(=O)/C(=N\OC(C(=O)O)c4ccc(O)c(O)c4)c4csc(N)n4)[C@H]3SC2)cc1 (single isomer, unassigned) [Example 38, Sodium 7β-[2-(2-aminothiazol-4-yl)-(Z)-2-(α-carboxylato-3,4-dihydroxybenzyloxyimino)acetamido]-3-(1-methyl-4-pyridiniomethoxy)-3-cephem-4-carboxylate (diastereisomer A)] | 0.039 | 0.039 | 0.025 | 0.39 | 0.1 | – | – | – | – | MIC (S. aureus 109P NIHJ-JCl; [6]): 0.039 µg/mL |
| CO/N=C(\C(=O)N[C@@H]1C(=O)N2C(C(=O)[O-])=C(OCc3ccncc3)CS[C@H]12)c1csc(N)n1.[Na+] [Example 1, Sodium 7β-[2-(2-aminothiazol-4-yl)-(Z)-2-methoxyiminoacetamido]-3-(4-pyridylmethoxy)-3-cephem-4-carboxylate] | – | – | – | – | – | 0.2 | < 0.006 | 0.78 | 0.1 | MIC (E. cloacae 963; [7]): 0.2 µg/mL; MIC (P. vulgaris HX-19; HX19, 16 h): 0.05 µg/mL |
| CC(C)(O/N=C(\C(=O)N[C@@H]1C(=O)N2C(C(=O)O)=C(OCc3ccncc3)CS[C@H]12)c1csc(N)n1)C(=O)O [Example 4, Disodium 7β-[2-(2-aminothiaxol-4-yl)-(Z)-2-(1-carboxylato-1-methylethoxyimino)acetamido]-3-(4-pyridylmethoxy)-3-cephem-4-carboxylate] | 0.039 | 0.39 | 0.05 | 0.0125 | – | – | – | 12.5 | 0.025 | – |
| CO/N=C(\C(=O)N[C@@H]1C(=O)N2C(C(=O)[O-])=C(OCc3ccc(C#N)cc3)CS[C@H]12)c1csc(N)n1.[Na+] [Example 12, Sodium 7β-[2-(2-aminothiazol-4-yl)-(Z)-2-methoxyiminoacetamido]-3-(4-cyanobenzyloxy)-3-cephem-4-carboxylate] | – | – | – | – | – | 0.78 | 0.0125 | 0.78 | 0.39 | MIC (E. cloacae 963; [7]): 0.78 µg/mL; MIC (P. vulgaris HX-19; HX19, 16 h): 0.025 µg/mL |
| CO/N=C(\C(=O)N[C@@H]1C(=O)N2C(C(=O)O)=C(OCc3ccc(C(N)=O)cc3)CS[C@H]12)c1csc(N)n1 [Example 14, Sodium 7β-[2-(2-aminothiazol-4-yl)-(Z)-2-methoxyiminoacetamido]-3-(4-carbamoylbenzVloxy)-3-cephem-4-carboxylate] | 0.2 | 0.39 | < 0.006 | 0.05 | 0.1 | – | – | – | – | MIC (S. aureus 209P NIHJ-JCl; [8]): 3.12 µg/mL |
| CO/N=C(\C(=O)N[C@@H]1C(=O)N2C(C(=O)[O-])=C(OCc3nc(C)cs3)CS[C@H]12)c1csc(N)n1.[Na+] [Example 16, Sodium 7β-[2-(2-aminothiazol-4-yl)-(Z)-2-methoxyiminoacetamido]-3-(4-methylthiazol-2-ylmethoxy)-3-cephem-4-carboxylate] | – | – | – | – | – | 0.2 | < 0.006 | 3.12 | 0.2 | MIC (E. cloacae 963; [7]): 0.2 µg/mL; MIC (P. vulgaris HX-19; HX19, 16 h): < 0.006 µg/mL |
| CO/N=C(\C(=O)N[C@@H]1C(=O)N2C(C(=O)[O-])=C(c3csnn3)CS[C@H]12)c1csc(N)n1.[Na+] [Example 18, Sodium 7δ-[2-(2-aminothiazol-4-yl)-(Z)-2-methoxyiminoacetamido]-3-(1,2,3-thiadiazol-4-yl)-3-cephem-4-carboxylate] | – | – | – | – | – | – | – | – | – | Minimum Inhibitory Concentration (MIC) (E. cloacae 963; E. cloacae 963, 10^6 CFU/ml, MH agar, 37° C., 16 hours): 0.390 µg/mL; Minimum Inhibitory Concentration (MIC) (E. coli NIHJ JC2; E. coli NIHJ JC2, 10^6 CFU/ml, MH agar, 37° C., 16 hours): 0.390 µg/mL; Minimum Inhibitory Concentration (MIC) (K. pneumoniae PCI-602; K. pneumoniae PCI-602, 10^6 CFU/ml, MH agar, 37° C., 16 hours): 0.0125 µg/mL; Minimum Inhibitory Concentration (MIC) (P. vulgaris HX-19; P. vulgaris HX-19, 10^6 CFU/ml, MH agar, 37° C., 16 hours): 0.100 µg/mL; Minimum Inhibitory Concentration (MIC) (S. aureus 209P NIHJ-JCl; [8]): 3.12 µg/mL; Minimum Inhibitory Concentration (MIC) (S. marcescens IAM 1184; S. marcescens IAM 1184, 10^6 CFU/ml, MH agar, 37° C., 16 hours): 0.390 µg/mL |
| NC(=O)c1ccc(COC2=C(C(=O)[O-])N3C(=O)[C@@H](NC(=O)/C(=N\OCC(=O)[O-])c4csc(N)n4)[C@H]3SC2)cc1.[Na+].[Na+] [Example 22, Disodium 7β-[2-(2-aminothiazol-4-yl)-(Z)-2-carboxylatomethoxyiminoacetamido]-3-(4-carbamoylbenzyloxy)-3-cephem-4-carboxylate] | – | – | – | – | – | 0.05 | 0.025 | 50 | 0.0125 | MIC (E. cloacae 963; [7]): 0.1 µg/mL; MIC (P. vulgaris HX-19; HX19, 16 h): 0.025 µg/mL |
| CO/N=C(\C(=O)N[C@@H]1C(=O)N2C(C(=O)[O-])=C(OCc3cc[n+](C)cc3)CS[C@H]12)c1csc(N)n1 [Example 32, 7β-[2-(2-aminothiazol-4-yl)-(Z)-2-methoxyiminoacetamido]-3-(1-methyl-4-pyridiniomethoxy)-3-cephem-4-carboxylate] | 0.1 (≈ 0.198 µM) | 0.1 (≈ 0.198 µM) | 0.025 (≈ 0.0495 µM) | 0.2 (≈ 0.396 µM) | 0.05 (≈ 0.0991 µM) | – | – | – | – | MIC (S. aureus 109P NIHJ-JCl; [6]): 0.039 µg/mL (≈ 0.0773 µM) |
| C[n+]1ccc(COC2=C(C(=O)[O-])N3C(=O)[C@@H](NC(=O)/C(=N\OC(C)(C)C(=O)O)c4csc(N)n4)[C@H]3SC2)cc1 [Example 36, Sodium 7β-[2-(2-aminothiazol-4-yl)-(Z)-2-(1-carboxylato-1-methylethoxyimino)acetamido]-3-(1-methy-4-pyridiniomethoxy)-3-cephem-4-carboxylate] | 0.05 | 0.05 | 0.0125 | 0.05 | 0.025 | – | – | – | – | MIC (S. aureus 109P NIHJ-JCl; 16 h): 6.25 µg/mL |
| C=C(O/N=C(\C(=O)N[C@@H]1C(=O)N2C(C(=O)[O-])=C(OCc3cc[n+](C)cc3)CS[C@H]12)c1csc(N)n1)C(=O)O [Example 37, Sodium 7β-[2-(2-aminothiazol-4-yl)-(Z)-2-(1-carboxylatovinyloxyimino)acetamido]-3-(1-methyl-4-pyridiniomethoxy)-3-cephem-4-carboxylate] | 0.025 | – | – | 0.025 | < 0.006 | 0.025 | < 0.006 | – | – | MIC (S. aureus 109P NIHJ-JCl; 16 h): 1.56 µg/mL |
| C[n+]1ccc(COC2=C(C(=O)[O-])N3C(=O)[C@@H](NC(=O)/C(=N\OCc4ccccc4CC(=O)O)c4csc(N)n4)[C@H]3SC2)cc1 [Example 40, Sodium 7β-[2-(2-aminothiazol-4-yl)-(Z)-2-(2-carboxylatomethylbenzyloxyimino)acetamido]-3-(1-methyl-4-pyridiniomethoxy)-3-cephem-4-carboxylate] | 0.39 | 0.39 | 0.05 | 0.0125 | 0.1 | – | – | – | – | MIC (S. aureus 109P NIHJ-JCl; [6]): 1.56 µg/mL |
| CO/N=C(\C(=O)N[C@@H]1C(=O)N2C(C(=O)[O-])=C(OCc3cccc[n+]3C)CS[C@H]12)c1csc(N)n1 [Example 44, 7β-[2-(2-aminothiazol-4-yl)-(Z)-2-methoxyiminoacetamido]-3-(1-methyl-2-pyridiniomethoxy)-3-cephem-4-carboxylate] | 0.2 (≈ 0.396 µM) | 0.39 (≈ 0.773 µM) | 0.05 (≈ 0.0991 µM) | 0.2 (≈ 0.396 µM) | 0.2 (≈ 0.396 µM) | – | – | – | – | MIC (S. aureus 109P NIHJ-JCl; [6]): 0.2 µg/mL (≈ 0.396 µM) |
| CCO/N=C(\C(=O)N[C@@H]1C(=O)N2C(C(=O)[O-])=C(OCc3cc[n+](CC(=O)O)cc3)CS[C@H]12)c1csc(N)n1 [Example 51, Sodium 7β-[2-(2-aminothiazol-4-yl)-(Z)-2-ethoxyiminoacetamido]-3-(1-carboxylatomethyl-4-pyridiniomethoxy)-3-cephem-4-carboxylate] | 0.1 | 0.2 | 0.025 | 0.05 | 0.1 | – | – | – | – | MIC (S. aureus 109P NIHJ-JCl; 16 h): 3.12 µg/mL |

Reference: patent US4918070A, “Cephalosporin derivatives and antibacterial agents” (Banyu Pharmaceutical Co., Ltd., priority 1987, dated 1990)
